Laboratory results reported in publication PMC11813358 (Journal of Microbiology and Biotechnology, 2024).
Changes are numbered by the printed parent chain. Values joined by “and” are separate entries in the source; they are usually repeats but may differ in a detail not shown here. Identical values can stand only once. “Also recorded” adds a separate entry of the source.

Tests used:
Format in all cases: cell-based
[1] = target: T1, Human 5-hydroxytryptamine receptor 3A subtype (wild-type 5-HT3A receptor) (Homo sapiens, UniProt P46098); test: Two-electrode voltage clamp of 5-HT-induced inward current (I5-HT) in Xenopus oocytes expressing wild-type 5-HT3A receptor; details: for Imax of 5-HT concentration-response: normalized to maximum 5-HT current
T1 construct: host or cells: Xenopus laevis oocytes injected with cRNA
T1 sequence (P46098 24-478): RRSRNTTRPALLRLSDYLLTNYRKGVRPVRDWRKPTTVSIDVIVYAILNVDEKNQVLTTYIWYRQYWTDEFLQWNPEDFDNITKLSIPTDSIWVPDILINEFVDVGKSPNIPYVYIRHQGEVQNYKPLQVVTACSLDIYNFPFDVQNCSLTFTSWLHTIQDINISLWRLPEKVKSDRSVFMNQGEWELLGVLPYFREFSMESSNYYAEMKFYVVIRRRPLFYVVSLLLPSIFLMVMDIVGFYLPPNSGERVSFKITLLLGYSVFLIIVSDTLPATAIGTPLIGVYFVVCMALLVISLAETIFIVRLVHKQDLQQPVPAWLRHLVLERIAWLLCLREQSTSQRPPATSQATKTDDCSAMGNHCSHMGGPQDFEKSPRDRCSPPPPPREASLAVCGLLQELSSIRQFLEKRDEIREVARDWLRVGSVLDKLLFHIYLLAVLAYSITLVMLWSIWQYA
Experimental: (§1) The experimental procedure follows the approach outlined in the previous study, but is summarized briefly as follows. The plasmid containing the cDNAs for the 5-HT3A receptor was digested with Xho I restriction enzymes to linearize the cDNAs, which were then transcribed into cRNA using the Ambion mMESSAGE mMACHINE transcription kit with T7 RNA polymerase (Thermo Fisher Scientific Inc., USA). After transcription, the cRNA was dissolved in nuclease-free water, and its size and concentration were assessed via electrophoresis and spectrophotometry (DeNovix Inc., USA). The cRNA was aliquoted to a concentration of 1 μg/μl for storage at -80°C. Specific mutations were introduced into the 5-HT3A receptor using the QuickChange site-directed mutagenesis kit (Agilent Technologies Inc., USA) and PCR. The correctness of the mutations was verified by sequencing the final mutated DNA (CosmoGenetech Co., Republic of Korea).
(§2) The study utilized female Xenopus laevis frogs that were kept according to institutional protocols (CNU IACUC-YB-2016-07, July 2016), requiring a stable temperature of around 20°C and a 12-h light-dark cycle. Frog care adhered to standards from the Korean Xenopus Resource Center for Research (KXRCR000001). Anesthesia was induced by placing the frogs on ice, after which a small abdominal incision was made to extract oocytes, which were isolated using OR2 buffer (containing 82.5 mM NaCl, 2 mM KCl, 1 mM MgCl2, and 5 mM HEPES, pH 7.5) with collagenase. After rinsing with ND96 buffer (which includes 96 mM NaCl, 2 mM KCl, 1 mM MgCl2, 1.8 mM CaCl2, and 5 mM HEPES, pH 7.5), stage V-VI oocytes were selected and incubated at 18°C with ND96 incubation buffer containing sodium pyruvate and gentamicin for 2 to 3 days. Finally, 40 ng of 5HT3A cRNA was injected into each oocyte using a Nanoject automatic oocyte injector.
(§3) Two to three days post-RNA injection, the expression of the 5-HT3A protein in the oocytes was verified using a two-electrode oocyte clamp (OC-725C, Warner Instruments, LLC, USA). An agar bridge facilitated electrical connections, while ND96 buffer flowed continuously into the net chamber at 2 ml/min. Two glass microelectrodes filled with 3 M KCl (0.2 MΩ resistance) accessed the oocytes. To analyze the current-voltage relationship, voltages from −80 to +50 mV were applied, maintaining a holding potential of −80 mV. Current data were collected with a Digidata 1550 series device and analyzed using pCLAMP 10 software (Molecular Devices LLC, USA).
(§4) The Hill equation was used for graph fitting in OriginPro 7.0, as detailed below:
(§5) y = Vmin + (Vmax − Vmin) * [x]^n/([IC50]^n + [x]^n)
In this formula, Vmax and Vmin represent the highest and lowest current values, respectively. […] The variable x signifies the concentration of these compounds, while n corresponds to the Hill coefficient.

[2] = target: T2, double mutant (L260A + V264A) 5-HT3A receptor (Homo sapiens, UniProt P46098, L282A/V286A); test: Two-electrode voltage clamp of I5-HT in oocytes expressing double mutant (L260A/V264A) 5-HT3A receptor; details: for Inhibitory effect of MDL 72222 on double mutant: 0.5 μM MDL 72222
T2 construct: expressed in transfected cells; host or cells: Xenopus laevis oocytes injected with cRNA
T2 sequence (P46098 24-478 L282A/V286A): T1 sequence (P46098 24-478) with L259A, V263A
Experimental: as §1, §2, §3, §4, §5
In this formula, Vmax and Vmin represent the highest and lowest current values, respectively. […]

[3] = target: T3, L260A mutant 5-HT3A receptor (Homo sapiens, UniProt P46098, L282A); test: Two-electrode voltage clamp of I5-HT in oocytes expressing L260A mutant 5-HT3A receptor; details: 100 μM 5-HT
T3 construct: expressed in transfected cells; host or cells: Xenopus laevis oocytes injected with cRNA
T3 sequence (P46098 24-478 L282A): T1 sequence (P46098 24-478) with L259A
Experimental: as §1
as §2, with “Finally, 40 ng of 5HT3A cRNA was injected into each oocyte using a Nanoject automatic oocyte injector.” left out
(§6) Two to three days post-RNA injection, the expression of the 5-HT3A protein in the oocytes was verified using a two-electrode oocyte clamp (OC-725C, Warner Instruments, LLC, USA). […] Current data were collected with a Digidata 1550 series device and analyzed using pCLAMP 10 software (Molecular Devices LLC, USA). […]

[4] = target: T4, V264A mutant 5-HT3A receptor (Homo sapiens, UniProt P46098, V286A); test: Two-electrode voltage clamp of I5-HT in oocytes expressing V264A mutant 5-HT3A receptor; details: 100 μM 5-HT
T4 construct: expressed in transfected cells; host or cells: Xenopus laevis oocytes injected with cRNA
T4 sequence (P46098 24-478 V286A): T1 sequence (P46098 24-478) with V263A
Experimental: as §1
as §2, with “Finally, 40 ng of 5HT3A cRNA was injected into each oocyte using a Nanoject automatic oocyte injector.” left out
as §6

[5] = −80 mV, unit not printed in Table 3, taken
[6] = 5-HT + 3 μM nicergoline, −80 mV
[7] = 5-HT + 30 μM nicergoline, −80 mV
[8] = wild type, co-treatment with 100 μM 5-HT, −80 mV

## NCCc1c[nH]c2ccc(O)cc12 [serotonin, 5-hydroxytryptamine]
[1]; Control, 5-HT alone, −80 mV
  Imax of 5-HT concentration-response: 101.5 ± 4.6
  nH of 5-HT concentration-response: 1.2 ± 0.1

## CN1[C@@H]2CC[C@H]1C[C@@H](OC(=O)c1cc(Cl)cc(Cl)c1)C2 [MDL 72222]
[2]; double mutant (L260A/V264A)
  Inhibitory effect of MDL 72222 on double mutant: strongly inhibited
[2]; double mutant (L260A/V264A), listed as MDL72222
  Inhibitory effect of MDL 72222 on double mutant: remained unaffected

## CO[C@]12C[C@@H](COC(=O)c3cncc(Br)c3)CN(C)[C@@H]1Cc1cn(C)c3cccc2c13 [nicergoline]
[3]
  nH: 1.2 ± 0.3
[3]; −80 mV
  Maximum inhibition of I5-HT: 51% and 51.9 ± 2.9%
[3]; [5]
  IC50: 57.4 ± 5.6 µM
[4]
  nH: 0.8 ± 0.2
[4]; −80 mV
  Maximum inhibition of I5-HT: 24% and 24.1 ± 0.8%
[4]; [5]
  IC50: 54.7 ± 5 µM
[1]; 30 μM nicergoline applied alone, then 100 μM 5-HT at 0 sec washout
  5-HT current when 5-HT applied immediately following nicergoline, % of the initial (baseline) current: 56.2 ± 10.9%
[1]; [6]
  Imax of 5-HT concentration-response: 70.6 ± 2.9
  nH of 5-HT concentration-response: 1.3 ± 0.4
[1]; [7]
  Imax of 5-HT concentration-response: 45.8 ± 8.6
  nH of 5-HT concentration-response: 1.2 ± 0.3
[1]; 5-HT concentration-response in presence of 3 and 30 μM nicergoline
  Mode of antagonism versus 5-HT: non-competitive
[1]; wild type, co-treatment with 100 μM 5-HT, holding potential −80 mV
  IC50: 7.7 ± 0.9 µM
[1]; [8]
  Hill coefficient (nH) of inhibition: 1.4 ± 0.2
  Maximum inhibition of I5-HT: 91.1 ± 3.4%
[1]; wild type, co-treatment with 100 μM 5-HT, −80 mV, listed as Nicergoline
  Maximum inhibition of I5-HT: approximately 91%
[2]; 100 μM nicergoline, double mutant (L260A/V264A)
  Inhibitory effect of nicergoline on double mutant: absent; also recorded: abolished
[2]; L260A + V264A double mutant, 100 μM 5-HT, −80 mV
  Maximum inhibition of I5-HT: 2.7 ± 1.3%
